The record followed here is patent publication US20200131176A1, “SELECTIVE INHIBITORS OF CLINICALLY IMPORTANT MUTANTS OF THE EGFR TYROSINE KINASE” (CS Pharmatech Limited, priority 2017, published 2020).

The target of series [1] is Wild type EGFR in A431 cells (Homo sapiens, UniProt P00533). As to conditions: WT (A431) IC50 nM, cellular EGFR autophosphorylation, A431, 2 h treatment then EGF stimulation 10 min.
Another series has as its target T1, INSR (Homo sapiens, UniProt P06213).
T1 construct: purchased CARNA BIOSCIENCE 08-142
As to the kind of experiment: INSR inhibition assay (Caliper mobility shift). The class given is biochemical. As to conditions: enzyme assay.

Series [2] concerns the target T2, L858R/T790M double mutant EGFR in H1975 cells (Homo sapiens, UniProt P00533, L858R/T790M).
T2 construct: endogenous in cells; host or cells: H1975 cells
As to the kind of experiment: L858R/T790M double mutant H1975 autophosphorylation inhibition assay (ELISA). The class given is cell-based. As to conditions: cellular EGFR autophosphorylation, H1975, 2 h treatment; read-out: DM (H1975) IC50.

Series [3] has as its system H1975 NSCLC cells xenograft (EGFR L858R/T790M double mutant). Nature of the series: EGFR L858R/T790M double-mutant H1975 xenograft model. The class given is in vivo, nu/nu mice. As to conditions: day 10 after dosing; for Tumor Size: average ± SEM, n = 9.
Experimental: Appropriately transformed cells, either from ATCC cell lines, known to carry the oncogene of interest, or from deliberate transfections, are suspended in appropriate media, and 5×10^6 or 1×10^7 cells are injected into the flank of nu/nu mice. Alternatively trochar placement of fragments of in vivo passaged tumors, usually about 1 mm^3 can be used to initiate the tumors. When tumors have reached an appropriate size for the experiment, usually in the 100-300 mg range, animals are randomized into matched groups of 6-10 mice, and tumor size and given vehicle or test article by perioral gavage once or twice daily. Tumor volumes are determined using calipers. The percentage increase in the volume of a xenograft tumor on day n versus day 0 (the day when dosing of the test compound began) is calculated as (tumor volume on day n−tumor volume on day 0/tumor volume on day 0)×100. The mean percentage of tumor growth inhibition in each drug-treated group relative to the vehicle-treated group is calculated as (1−mean percent increase of tumor volume in the drug-treated group/mean percent increase of the tumor volume in the vehicle-treated group)×100. Statistical significance is evaluated using a one-tailed t test.
Tumor size was measured on day 10 after dosing.
Series [4] is described as follows: Mouse in vivo PK study. As to conditions: male CD1 mice.
The target in another series is T3, IGF-1R (Homo sapiens, UniProt P08069).
T3 construct: purchased CARNA BIOSCIENCE 08-141
T3 sequence (P08069 959-1367 limits assumed): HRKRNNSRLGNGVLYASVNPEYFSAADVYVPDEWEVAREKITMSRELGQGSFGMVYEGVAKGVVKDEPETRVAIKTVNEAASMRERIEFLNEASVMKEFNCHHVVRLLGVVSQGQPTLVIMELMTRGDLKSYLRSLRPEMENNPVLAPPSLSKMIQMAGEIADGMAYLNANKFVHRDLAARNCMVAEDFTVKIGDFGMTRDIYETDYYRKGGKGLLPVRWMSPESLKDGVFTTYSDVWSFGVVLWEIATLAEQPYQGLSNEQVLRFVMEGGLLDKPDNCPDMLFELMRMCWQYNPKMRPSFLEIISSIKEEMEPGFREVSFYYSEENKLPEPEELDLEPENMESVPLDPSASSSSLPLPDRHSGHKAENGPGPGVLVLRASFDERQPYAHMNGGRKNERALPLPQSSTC
As to the kind of experiment: IGF-1R inhibition assay (Caliper mobility shift). The class given is biochemical. Particulars: enzyme assay.

The subject of a further series is H1975 cells. As to the kind of experiment: H1975 inhibition assay (cell proliferation, CellTiter-Glo, 72 h). As to conditions: cellular proliferation, double mutant EGFR, read-out: NCI-H1975 IC50 (nM) DM. The class given is cell-based, human. On the technique in general: In ATP-based viability assays light output follows the ATP content of the culture.
In series [5] the target is T4, Exon 19 deletion EGFR (activating single mutant) in PC-9 cells (Homo sapiens, UniProt P00533, DEL746-750).
T4 construct: cellular phosphorylation of endogenous p-EGFR; host or cells: PC9 (PC-9) human lung cell line
T4 sequence (P00533 with tags, fused parts or gaps DEL746-750): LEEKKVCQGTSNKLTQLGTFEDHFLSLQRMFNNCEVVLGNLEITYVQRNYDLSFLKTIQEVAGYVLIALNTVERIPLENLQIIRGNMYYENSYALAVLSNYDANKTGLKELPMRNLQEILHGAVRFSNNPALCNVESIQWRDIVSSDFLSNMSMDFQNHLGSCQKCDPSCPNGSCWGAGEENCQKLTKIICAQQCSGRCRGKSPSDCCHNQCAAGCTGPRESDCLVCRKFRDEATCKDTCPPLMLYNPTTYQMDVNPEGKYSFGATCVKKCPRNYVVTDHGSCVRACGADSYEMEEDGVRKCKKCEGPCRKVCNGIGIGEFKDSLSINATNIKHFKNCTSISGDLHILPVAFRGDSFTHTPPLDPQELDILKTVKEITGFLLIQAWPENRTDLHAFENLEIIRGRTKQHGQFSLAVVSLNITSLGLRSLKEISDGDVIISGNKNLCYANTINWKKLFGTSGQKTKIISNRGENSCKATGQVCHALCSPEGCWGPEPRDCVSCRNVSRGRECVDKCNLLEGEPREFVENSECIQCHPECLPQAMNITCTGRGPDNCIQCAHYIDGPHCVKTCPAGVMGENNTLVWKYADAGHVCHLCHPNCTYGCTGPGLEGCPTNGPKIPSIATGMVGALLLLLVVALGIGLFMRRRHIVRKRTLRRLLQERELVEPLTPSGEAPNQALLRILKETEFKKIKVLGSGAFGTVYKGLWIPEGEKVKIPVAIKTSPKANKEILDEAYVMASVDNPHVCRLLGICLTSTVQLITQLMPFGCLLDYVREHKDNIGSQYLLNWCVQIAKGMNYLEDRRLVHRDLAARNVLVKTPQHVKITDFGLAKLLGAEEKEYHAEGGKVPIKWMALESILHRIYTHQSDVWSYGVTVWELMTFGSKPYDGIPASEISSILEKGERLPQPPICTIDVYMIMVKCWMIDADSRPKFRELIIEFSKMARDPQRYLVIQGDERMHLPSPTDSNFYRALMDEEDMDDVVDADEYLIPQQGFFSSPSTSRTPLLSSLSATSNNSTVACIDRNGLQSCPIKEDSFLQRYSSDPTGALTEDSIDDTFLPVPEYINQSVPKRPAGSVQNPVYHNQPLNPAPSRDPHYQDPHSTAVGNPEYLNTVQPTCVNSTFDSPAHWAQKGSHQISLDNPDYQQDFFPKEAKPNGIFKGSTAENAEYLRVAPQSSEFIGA
Nature of the series: Exon 19 deletion EGFR PC-9 cellular autophosphorylation assay (p-EGFR ELISA). The class given is cell-based. Particulars: PC9, 2 h treatment, read-out: SM (PC9) IC50. For orientation: ELISA stands for enzyme-linked immunosorbent assay.
Experimental: The human lung cell line PC9 (Exon 19 deletion EGFR) were obtained from the American type Culture Collection. […] Cells were grown in a humidified incubator at 37° C. with 5% CO2, Assays to measure cellular phosphorylation of endogenous p-EGFR in cell Iysates were carried out according to the protocol described in the R&D Systems DuoSet IC Human Phospho-EGF R ELISA (R&D Systems catalogue number # DYCI095). 40 μL of cells were seeded (10000 cells/well) in growth medium in Coming black, clear-bottomed 384-well plates and incubated at 37° C. with 5% CO2 overnight. […] Plates were incubated for a further 2 h, then following aspiration of medium, 40 μL× lysis buffer is added to each well. Greiner black high bind 384 well plates were coated with capture antibody and then blocked with 3% BSA. Following removal of block, 15 μL of lysate are transferred to the Greiner black high bind 384 well plates and incubated for 2 hours. Following aspiration and washing of the plates with PBS, 20 μL of detection antibody were added and incubated for 2 hours. […] The data obtained with each compound are exported into a suitable software package (such as Origin) to perform curve fitting analysis.

In series [6] the target is hERG channel (HEK 293 cell line stably expressing hERG channel) (Homo sapiens, UniProt Q12809). Nature of the series: cell-based.
Chain of hERG channel (HEK 293 cell line stably expressing hERG channel) (Q12809 whole entry): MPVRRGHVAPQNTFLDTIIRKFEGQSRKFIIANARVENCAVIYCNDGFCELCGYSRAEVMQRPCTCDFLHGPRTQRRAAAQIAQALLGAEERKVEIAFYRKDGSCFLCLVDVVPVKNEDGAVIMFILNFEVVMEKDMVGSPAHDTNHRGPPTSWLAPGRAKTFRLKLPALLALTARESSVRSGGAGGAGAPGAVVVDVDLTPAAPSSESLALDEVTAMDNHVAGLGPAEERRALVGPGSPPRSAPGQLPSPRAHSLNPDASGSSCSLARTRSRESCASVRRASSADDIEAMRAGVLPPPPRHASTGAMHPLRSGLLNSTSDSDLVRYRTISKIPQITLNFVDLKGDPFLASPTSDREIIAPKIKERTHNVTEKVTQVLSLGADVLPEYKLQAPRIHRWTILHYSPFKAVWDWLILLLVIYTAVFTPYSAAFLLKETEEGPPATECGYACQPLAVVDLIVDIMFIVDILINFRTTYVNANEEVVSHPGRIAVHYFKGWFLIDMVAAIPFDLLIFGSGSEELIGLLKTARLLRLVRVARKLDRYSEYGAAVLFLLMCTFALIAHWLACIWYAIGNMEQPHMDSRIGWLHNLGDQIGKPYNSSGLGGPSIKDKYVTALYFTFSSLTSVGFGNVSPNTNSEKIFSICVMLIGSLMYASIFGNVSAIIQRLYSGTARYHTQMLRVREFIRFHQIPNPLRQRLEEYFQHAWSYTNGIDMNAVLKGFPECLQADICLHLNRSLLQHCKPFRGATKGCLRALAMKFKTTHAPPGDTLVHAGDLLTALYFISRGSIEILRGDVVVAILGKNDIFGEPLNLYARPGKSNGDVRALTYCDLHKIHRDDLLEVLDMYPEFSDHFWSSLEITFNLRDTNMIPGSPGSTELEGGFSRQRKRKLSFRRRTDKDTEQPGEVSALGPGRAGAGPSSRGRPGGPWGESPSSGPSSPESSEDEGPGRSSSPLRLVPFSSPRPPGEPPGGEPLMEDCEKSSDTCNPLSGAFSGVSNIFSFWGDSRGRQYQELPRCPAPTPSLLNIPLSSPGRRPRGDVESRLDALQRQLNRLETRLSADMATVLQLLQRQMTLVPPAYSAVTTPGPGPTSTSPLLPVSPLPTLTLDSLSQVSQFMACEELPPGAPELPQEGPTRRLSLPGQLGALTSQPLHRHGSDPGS
A further series relates to A431 cells. Nature of the series: A431 inhibition assay (cell proliferation, CellTiter-Glo, 72 h). The class given is cell-based, human. As to conditions: cellular proliferation, wild type EGFR, read-out: A431 IC50 (nM) WT.
Series [7] is described as follows: Mouse in vivo PK study. As to conditions: male CD1 mice. As to the method: To determine the drug concentration in plasma of the compounds of the present disclosure following intravenous and oral administration in male CD 1 Mice, pharmacokinetic profile and PK parameters were obtained.
Test animals: healthy male CD1 mice (body weight 20-30 g, 18 mice, free access to food and water), provided by Sibeifu laboratory. […]
Samples collection: the healthy animals were used, weighed the bodyweight and marked at tail and cage card prior to dosing. Blood samples (0.03 mL per time point) were collected from dorsal metatarsal vein at 0.083, 0.25, 0.5, 1, 2, 4, 8, 24 h post dose for IV group and at 0.25, 0.5, 1, 2, 4, 8, 24 h post dose for PO group, the terminal time point was collected from heart (˜0.3 mL). The blood samples were put into the tube with heparin-Na coated and then put on the cold box, centrifuged at 4° C. 4000 g, 5 minutes immediately after collecting all samples per time point to get plasma. The plasma samples were stored in a freezer at −75±15° C. prior to analysis.
The drug concentration was determined by LC/MS/MS method, and the PK parameters were observed as follows.
The source holds these as a separate data set.

In the next series the test system is PC-9 cells. Nature of the series: PC-9 growth inhibition assay (cell proliferation, CellTiter-Glo, 72 h). The class given is cell-based, human. Particulars: cellular proliferation, PC9 cells, single mutant EGFR, read-out: PC9 IC50 (nM) SM.
The mark [8] stands for this setting: mouse, plasma, 10 mg/kg PO, read-out: T1/2 (PO) (converted).

The structures appear in SMILES notation. “And” between values parts separate entries of the source, which are not always exact repeats. Identical values can stand only once. Like-named read-outs stand apart in the source and are kept apart here.

T1 sequence (P06213 1005-1382 limits assumed): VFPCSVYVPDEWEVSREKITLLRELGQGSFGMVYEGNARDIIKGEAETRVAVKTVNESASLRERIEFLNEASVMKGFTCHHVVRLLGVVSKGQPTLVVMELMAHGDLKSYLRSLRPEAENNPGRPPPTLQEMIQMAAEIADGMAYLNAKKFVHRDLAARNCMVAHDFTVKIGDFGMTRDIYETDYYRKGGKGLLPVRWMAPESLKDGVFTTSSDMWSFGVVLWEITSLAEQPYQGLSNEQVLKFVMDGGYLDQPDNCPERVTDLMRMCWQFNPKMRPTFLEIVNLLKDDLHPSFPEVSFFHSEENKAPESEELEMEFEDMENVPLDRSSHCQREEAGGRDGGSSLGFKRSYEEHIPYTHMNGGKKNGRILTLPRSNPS
T2 sequence (P00533 25-1210 T790M/L858R): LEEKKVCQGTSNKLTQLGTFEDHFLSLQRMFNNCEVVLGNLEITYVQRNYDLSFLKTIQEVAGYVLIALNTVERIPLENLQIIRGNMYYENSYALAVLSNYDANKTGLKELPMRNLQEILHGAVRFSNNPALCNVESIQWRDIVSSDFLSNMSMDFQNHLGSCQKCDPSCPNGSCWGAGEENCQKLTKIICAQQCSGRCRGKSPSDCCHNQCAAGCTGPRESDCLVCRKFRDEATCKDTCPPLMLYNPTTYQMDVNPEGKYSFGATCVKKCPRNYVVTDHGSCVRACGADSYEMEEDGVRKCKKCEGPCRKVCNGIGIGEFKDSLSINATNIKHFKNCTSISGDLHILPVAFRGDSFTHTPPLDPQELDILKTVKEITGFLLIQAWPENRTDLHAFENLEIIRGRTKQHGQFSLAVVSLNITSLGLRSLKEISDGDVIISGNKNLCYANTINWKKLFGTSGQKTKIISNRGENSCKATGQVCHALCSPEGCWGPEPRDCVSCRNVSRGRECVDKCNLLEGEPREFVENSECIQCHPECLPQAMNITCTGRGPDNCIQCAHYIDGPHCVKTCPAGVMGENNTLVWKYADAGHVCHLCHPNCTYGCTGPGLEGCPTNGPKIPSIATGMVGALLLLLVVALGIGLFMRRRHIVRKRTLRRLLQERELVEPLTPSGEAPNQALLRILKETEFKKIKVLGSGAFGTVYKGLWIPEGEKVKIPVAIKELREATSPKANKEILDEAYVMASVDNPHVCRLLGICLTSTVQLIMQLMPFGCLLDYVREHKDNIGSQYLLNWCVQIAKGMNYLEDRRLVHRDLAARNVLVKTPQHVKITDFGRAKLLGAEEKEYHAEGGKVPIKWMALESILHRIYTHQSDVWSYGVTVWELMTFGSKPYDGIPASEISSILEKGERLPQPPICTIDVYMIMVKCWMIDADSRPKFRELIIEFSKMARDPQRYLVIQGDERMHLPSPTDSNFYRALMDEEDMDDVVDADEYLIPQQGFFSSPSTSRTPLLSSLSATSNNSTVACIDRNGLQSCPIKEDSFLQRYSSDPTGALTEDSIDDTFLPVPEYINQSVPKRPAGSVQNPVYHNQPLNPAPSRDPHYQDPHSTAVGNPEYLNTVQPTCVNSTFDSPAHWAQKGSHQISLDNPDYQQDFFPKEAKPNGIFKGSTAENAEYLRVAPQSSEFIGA
Experimental for IGF-1R: Test compound was dissolved in DMSO at 30 mM. […] 20 nL of these compounds DMSO dilutes were dispensed into a new 384-well assay plate by Echo 550. […] 15 μL of kinase assay buffer containing IGF-1R protein and substrate was transferred to assay plate and incubate at RT for 30 minutes. Kinase assay buffer supplemented with substrate peptides was employed as low control to monitor the background. 40 μM ATP was prepared in kinase assay buffer containing and 5 μL of ATP solution was added to each well to start the reaction. The assay plate was incubated at 25° C. for 180 minutes and the reaction was stopped by adding 40 μL of 0.5 M EDTA.
Phosphorylated fluorescent-tagged peptides were differentiated from non-phosphorylated peptides by separating using Caliper EZ Reader II and the detection was directly converted to conversion ratio.
Experimental for INSR: Test compound was dissolved in DMSO at 30 mM. […] 20 nL of these compounds DMSO dilutes were dispensed into a new 384-well assay plate by Echo 550. […] 15 μL of kinase assay buffer containing INSR protein and substrate was transferred to assay plate and incubate at RT for 30 minutes. Kinase assay buffer supplemented with substrate peptides was employed as low control to monitor the background. 40 μM ATP was prepared in kinase assay buffer containing and 5 μL of ATP solution was added to each well to start the reaction. The assay plate was incubated at 25° C. for 180 minutes and the reaction was stopped by adding 40 μL of 0.5 M EDTA.
The result was analyzed in the same manner as IGF-IR.

As usually defined, the IC50 is the concentration at which inhibition is half-maximal. Usually clearance stands for a measure of how efficiently the substance is removed, as volume per time. The term AUC denotes concentration integrated over time. A higher AUC goes with high exposure. Usually Cmax stands for the peak of the concentration-time curve. For `C=CC(=O)Nc1cc(Nc2nccc(-c3cc(C#N)c4c(c3)c(C)cn4C)n2)c(OC)cc1N(C)CCN(C)C` [Example 2, N-(5-((4-(7-Cyano-1,3-dimethyl-1H-indol-5-yl)pyrimidin-2-yl)amino)-2-((2-(dimethylamino)ethyl)(methyl)amino)-4-methoxyphenyl)acrylamide], the IC50 in series [1] is 77.1 nM and 166 nM; on INSR, 1820 nM; in series [2], 4.29 nM and 2.54 nM; at IGF-1R it was 1120 nM; with H1975 cells (Homo sapiens, NCI-H1975, 72 h) it was 4.77 nM; in the series on H1975 cells (NCI-H1975 cells) it was 3.45 nM. Also, the IC50 in series [5] was 7.06 nM and 5.4 nM; in [6] it was 6570 nM; in the series with A431 cells (Homo sapiens, A-431, 72 h), 2120 nM; in the series with A431 cells, 3680 nM; with PC-9 cells (Homo sapiens, PC-9, 72 h) it was 4.18 nM; in the series on PC-9 cells it was 3.22 nM. In addition, the “TGI (tumor growth inhibition)” value in series [3] (5 mg/kg) is reported as 96.93%; in [3] (15 mg/kg), 115.76%; in series [3] (30 mg/kg), 115.52%. Further, the figures for the “TRTV/CRTV (relative tumor volume)” value in [3] (5 mg/kg), in series [3] (15 mg/kg) and in series [3] (30 mg/kg) were 19.70%, 3.93% and 3.92%, respectively. Also, the “Tumor Size” value in [3] (5 mg/kg) came out at 230 ± 93 mm^3; in series [3] (15 mg/kg), 46 ± 32 mm^3; in series [3] (30 mg/kg) it was 45 ± 19 mm^3. In “Mouse in vivo PK study [4]” (2 mg/kg IV, 10 mg/kg PO), this molecule returned an F of 20.8%. In “Mouse in vivo PK study [4]” (mouse, plasma, 2 mg/kg IV), this molecule showed a clearance of 35.5 mL/min/kg. Besides, the half-life is 1.5 h in the series “Mouse in vivo PK study [4]” (mouse, plasma, 2 mg/kg IV, read-out: T1/2 (IV) (converted)) and 2.57 h in “Mouse in vivo PK study [4]” (setting [8]). In addition, the AUC in the series “Mouse in vivo PK study [4]” (mouse, plasma, 10 mg/kg PO) is 976 ng·h/mL; in the series “Mouse in vivo PK study [7]” (mouse, plasma, 2 mg/kg IV) it was 937 ng·h/mL. The peak concentration (Cmax) in “Mouse in vivo PK study [4]” (mouse, plasma, 10 mg/kg PO) was found to be 119 ng/mL.

On to `C=CC(=O)Nc1cc(Nc2nccc(-c3cc(C#N)cc4c3ccn4C)n2)c(OC)cc1N(C)CCN(C)C` [Example 4, N-(5-((4-(6-Cyano-1-methyl-1H-indol-4-yl)pyrimidin-2-yl)amino)-2-((2-(dimethylamino)ethyl)(methyl)amino)-4-methoxyphenyl)acrylamide], for which the IC50 in [1] turned out to be 69.5 nM; at INSR it was 965 nM; in [2], 1.98 nM; at IGF-1R, 831 nM; in the series with H1975 cells (Homo sapiens, NCI-H1975, 72 h) it was 1.03 nM; in series [5], 10.9 nM. Besides, the IC50 amounted to 2230 nM in series [6]; 1460 nM with A431 cells (Homo sapiens, A-431, 72 h); 1.91 nM in the series on PC-9 cells (Homo sapiens, PC-9, 72 h). Moreover, the AUC in the series “Mouse in vivo PK study [4]” (mouse, plasma, 10 mg/kg PO) is 225 ng·h/mL; in the series “Mouse in vivo PK study [7]” (mouse, plasma, 1 mg/kg IV), 96 ng·h/mL. The molecule also had a Cmax in the series “Mouse in vivo PK study [4]” (mouse, plasma, 10 mg/kg PO) of 80.2 ng/mL. Further, the half-life is 7.3 h in the series “Mouse in vivo PK study [4]” (setting [8]) and 0.576 h in the series “Mouse in vivo PK study [7]” (mouse, plasma, 1 mg/kg IV, read-out: T1/2 (IV) (converted)). For the same molecule, in the series “Mouse in vivo PK study [7]” (1 mg/kg IV, 10 mg/kg PO), the F was determined as 15%. In addition, the clearance in the series “Mouse in vivo PK study [7]” (mouse, plasma, 1 mg/kg IV) was found to be 183 mL/min/kg.

As for `C=CC(=O)Nc1cc(Nc2nccc(-n3nc(N(C)C)c4ccsc43)n2)c(OC)cc1N(C)CCN(C)C` [Example 5, N-(5-((4-(3-(Dimethylamino)-1H-thieno[2,3-c]pyrazol-1-yl)pyrimidin-2-yl)amino)-2-((2-(dimethylamino)ethyl)(methyl)amino)-4-methoxyphenyl) acrylamide], the IC50 in [1] turned out to be 148 nM; on INSR, 2140 nM; in [2], 6.46 nM; on IGF-1R, 1590 nM; with H1975 cells (Homo sapiens, NCI-H1975, 72 h) it was 5.86 nM; with H1975 cells (NCI-H1975 cells), 3.58 nM. For the same molecule, the IC50 is 17.1 nM in series [5]; 3490 nM in series [6]; 1300 nM with A431 cells (Homo sapiens, A-431, 72 h); 2210 nM in the series with A431 cells; 4.86 nM with PC-9 cells (Homo sapiens, PC-9, 72 h); 2.9 nM in the series on PC-9 cells.

Consider `C=CC(=O)Nc1cc(Nc2nccc(-c3cc(C#N)c4ccn(C)c4c3)n2)c(OC)cc1N(C)CCN(C)C` [Example 7, N-(5-((4-(4-Cyano-1-methyl-1H-indol-6-yl)pyrimidin-2-yl)amino)-2-((2-(dimethylamino)ethyl)(methyl)amino)-4-methoxyphenyl)acrylamide], for which the IC50 in [1] was determined as 302 nM; at INSR, 621 nM; in series [2], 8.26 nM; at IGF-1R, 390 nM; in the series with H1975 cells (Homo sapiens, NCI-H1975, 72 h), 4.76 nM; in series [5] it was 33 nM. For the same molecule, the IC50 in series [6] came to 1090 nM; with A431 cells (Homo sapiens, A-431, 72 h), 2170 nM; in the series with PC-9 cells (Homo sapiens, PC-9, 72 h), 7.38 nM.

For `C=CC(=O)Nc1cc(Nc2nccc(-n3nc(N(C)C)c4ccccc43)n2)c(OC(F)F)cc1N(C)CCN(C)C` [Example 18, N-(4-(Difluoromethoxy)-5-((4-(3-(dimethylamino)-1H-indazol-1-yl)pyrimidin-2-yl)amino)-2-((2-(dimethylamino)ethyl)(methyl)amino)phenyl) acrylamide], the IC50 in series [1] is 49.1 nM; at INSR it was 968 nM; in series [2] it was 3.94 nM; at IGF-1R, 1160 nM; with H1975 cells (Homo sapiens, NCI-H1975, 72 h), 2.66 nM; in series [5] it was 5.87 nM. Further, the IC50 in series [6] worked out at 1680 nM; with A431 cells (Homo sapiens, A-431, 72 h), 1240 nM; in the series on PC-9 cells (Homo sapiens, PC-9, 72 h), 1.79 nM.

As to `C=CC(=O)Nc1cc(Nc2nccc(-n3nc(N(C)C)c4ncccc43)n2)c(OC(F)F)cc1N(C)CCN(C)C` [Example 19], the half-maximal inhibitory concentration (IC50) was determined as 92.8 nM in [1]; 1750 nM at INSR; 5.35 nM in [2]; 1680 nM on IGF-1R; 2.82 nM in the series with H1975 cells (Homo sapiens, NCI-H1975, 72 h); 14.7 nM in series [5]. The IC50 in [6] amounted to 1100 nM; in the series with A431 cells (Homo sapiens, A-431, 72 h), 953 nM; with PC-9 cells (Homo sapiens, PC-9, 72 h) it was 3.78 nM.

`C=CC(=O)Nc1cc(Nc2nccc(-n3nc(N(C)C)c4ncccc43)n2)c(OCC(F)F)cc1N(C)CCN(C)C` [Example 21, N-(4-(2,2-Difluoroethoxy)-5-((4-(3-(dimethylamino)-1H-pyrazolo[4,3-b]pyridin-1-yl)pyrimidin-2-yl)amino)-2-(N-(2-(dimethylamino)ethyl)-N-methylamino)phenyl)acrylamide]: the IC50 in series [1] is 192 nM; on INSR, 2730 nM; in [2], 12.2 nM; on IGF-1R, 1510 nM; in the series on H1975 cells (Homo sapiens, NCI-H1975, 72 h) it was 6.84 nM; in series [5], 23.8 nM. The IC50 in series [6] is 3230 nM; in the series on A431 cells (Homo sapiens, A-431, 72 h), 1710 nM; in the series on PC-9 cells (Homo sapiens, PC-9, 72 h) it was 7.21 nM.

Regarding `C=CC(=O)Nc1cc(Nc2nccc(-n3nc(NCC)c4ncccc43)n2)c(OCC(F)F)cc1N(C)CCN(C)C` [Example 22, N-(4-(2,2-Difluoroethoxy)-2-((2-(dimethylamino)ethyl)(methyl)amino)-5-((4-(3-(ethylamino)-1H-pyrazolo[4,3-b]pyridin-1-yl)pyrimidin-2-yl)amino)phenyl)acrylamide], the IC50 is 35 nM in series [1]; 2530 nM at INSR; 4.54 nM in series [2]; 5650 nM on IGF-1R; 3.57 nM in the series on H1975 cells (Homo sapiens, NCI-H1975, 72 h); 5.79 nM in series [5]. Further, the IC50 in the series on A431 cells (Homo sapiens, A-431, 72 h) came out at 675 nM; with PC-9 cells (Homo sapiens, PC-9, 72 h) it was 1.79 nM.
